Data published in patent US9365522B2, “Pyrazole amide derivative” (AMGEN INC., priority 2015, dated 2016).

Target: T1, ligand binding domain of human ROR gamma (Homo sapiens, UniProt P51449)
T1 construct: NM_001001523; expressed in transfected cells; host or cells: HEK293T
T1 sequence (P51449 247-497 isoform P51449-2): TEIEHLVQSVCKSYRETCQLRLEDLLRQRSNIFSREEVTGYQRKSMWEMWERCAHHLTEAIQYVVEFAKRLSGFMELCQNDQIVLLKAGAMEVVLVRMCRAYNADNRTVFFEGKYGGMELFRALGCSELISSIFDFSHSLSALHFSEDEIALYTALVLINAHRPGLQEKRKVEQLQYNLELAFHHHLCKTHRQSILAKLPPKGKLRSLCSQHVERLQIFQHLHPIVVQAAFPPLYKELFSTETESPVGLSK
Experiment: ROR gamma reporter gene assay (GAL4-RORγ LBD luciferase, Dual-Glo)
Assay type: cell-based
Conditions: HEK293T cells transfected with pM-ROR gamma, 8 concentrations 3.5 nM to 10.5 μM, 24 h incubation; read-out: result (pIC50, inhibition of RORγ transcriptional activity) (converted)
In short: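 Transient GAL4-RORγ LBD (aa 247-497) / 5×UAS-luc / pRL-CMV cotransfection in HEK293T, charcoal-stripped 10% FBS. 8-pt dose, 3.5 nM–10.5 μM, 0.075% DMSO final. 24 h, 37 °C, 5% CO2. Dual-Glo firefly/renilla readout; pIC50 from curve fit.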

Molecule `CC12CCC(CN(CC(=O)c3c(Cl)cncc3Cl)C(=O)c3cnn([C@H]4CC[C@](C)(C(=O)O)CC4)c3C(F)(F)F)(CC1)C2` [Example 267, trans-4-(4-((2-(3,5-dichloropyridin-4-yl)-2-oxoethyl)-((1-methyl-4-bicyclo[2.2.1]heptanyl)methyl)carbamoyl)-5-(trifluoromethyl)pyrazol-1-yl)-1-methylcyclohexane-1-carboxylic acid] has an IC50 of 13500 pM.
`O=C(CN(Cc1cc(F)cc(F)c1)C(=O)c1cnn([C@H]2CC[C@H](C(=O)O)CC2)c1C(F)(F)F)c1c(Cl)nsc1Cl` [Example 216, trans-4-(4-((2-(3,5-dichloro-1,2-thiazol-4-yl)-2-oxoethyl)-((3,5-difluorophenyl)methyl)carbamoyl)-5-(trifluoromethyl)pyrazol-1-yl)cyclohexane-1-carboxylic acid] was tested, and the IC50 was > 1.05e+06 pM.
In the case of `CC1(C)CCC(N(CC(=O)c2c(Cl)cncc2Cl)C(=O)c2cnn([C@H]3CC[C@](C)(C(=O)O)CC3)c2C(F)(F)F)CC1` [Example 229, trans-4-(4-((2-(3,5-dichloropyridin-4-yl)-2-oxoethyl)-(4,4-dimethylcyclohexyl)carbamoyl)-5-(trifluoromethyl)pyrazol-1-yl)-1-methylcyclohexane-1-carboxylic acid], the IC50 is reported as 12900 pM.
`O=C(CN(Cc1cc(F)cc(F)c1)C(=O)c1cnn([C@H]2CC[C@H](C(=O)O)CC2)c1C(F)(F)F)C1CCCC1` [Example 113, trans-4-(4-((2-cyclopentyl-2-oxoethyl)-((3,5-difluorophenyl)methyl)carbamoyl)-5-(trifluoromethyl)pyrazol-1-yl)cyclohexane-1-carboxylic acid] was tested, and the IC50 was 4.57e+06 pM.
In the case of `O=C(CN(Cc1cc(F)cc(F)c1)C(=O)c1cnn([C@H]2CC[C@H](C(=O)O)CC2)c1C(F)(F)F)c1ccc(C(F)(F)F)cc1Cl` [Example 136, trans-4-(4-((2-(2-chloro-4-(trifluoromethyl)phenyl)-2-oxoethyl)-((3,5-difluorophenyl)methyl)carbamoyl)-5-(trifluoromethyl)pyrazol-1-yl)cyclohexane-1-carboxylic acid], the IC50 is reported as 83200 pM.
Molecule `O=C(CN(C(=O)c1cnn([C@H]2CC[C@H](C(=O)O)CC2)c1C(F)(F)F)[C@H]1C[C@@H]1c1ccccc1)c1c(Cl)cncc1Cl` [Example 161, trans-4-(4-((2-(3,5-dichloropyridin-4-yl)-2-oxoethyl)-((1S,2R)-2-phenylcyclopropyl)carbamoyl)-5-(trifluoromethyl)pyrazol-1-yl)cyclohexane-1-carboxylic acid] has an IC50 of 2.19e+06 pM.
Molecule `CC1(C)[C@@H]2C[C@H](N(CC(=O)c3c(Cl)cccc3C(F)(F)F)C(=O)c3cnn(C45CCC(C(=O)O)(CC4)CC5)c3C(F)(F)F)C[C@@H]21` [Example 247, 4-(4-((2-(2-chloro-6-(trifluoromethyl)phenyl)-2-oxoethyl)-((1R,3r,5S)-6,6-dimethyl-3-bicyclo[3.1.0]hexanyl)carbamoyl)-5-(trifluoromethyl)pyrazol-1-yl)bicyclo[2.2.2]octane-1-carboxylic acid] has an IC50 of 32400 pM.
With `O=C(CN(Cc1ccc(F)c(F)c1)C(=O)c1cnn([C@H]2CC[C@H](C(=O)O)CC2)c1C(F)(F)F)c1c(Cl)cncc1Cl` [Example 44, trans-4-(4-((2-(3,5-dichloropyridin-4-yl)-2-oxoethyl)(3,4-difluorobenzyl)carbamoyl)-5-(trifluorornethyl)-1H-pyrazol-1-yl)cyclohexanecarboxylic acid] the IC50 was 14800 pM.
`Cc1cc(Cl)c(C(=O)CN(C(=O)c2cnn([C@H]3CC[C@](C)(C(=O)O)CC3)c2C)[C@H]2C[C@@H]3[C@H](C2)C3(C)C)c(Cl)c1` [Example 365, trans-4-(4-((2-(2,6-dichloro-4-methylphenyl)-2-oxoethyl)((1R,3r,5S)-6,6-dimethylbicyclo[3.1.0]hexan-3-yl)carbamoyl)-5-methyl-1H-pyrazol-1-yl)-1-methylcyclohexanecarboxylic acid] showed an IC50 of 30900 pM.
